Assays:
[1] = system: primary human T cells; test: HITI/CEMENT knock-in CAR-T cell manufacturing at clinical scale; format: cell-based; conditions: end of MTX treatment (day 7), 50 nM
Protocol: (§1) Fresh Leukopaks were obtained from STEMCELL Technologies and processed for negative selection using the EasySep Human T Cell Isolation Kit. Cells were activated using Dynabeads Human T-Activator CD3/CD28 (Thermo Fisher) at a 1:1 ratio and cultivated in TexMACS media supplemented with human IL-7 at 12.5 ng/ml and IL-15 at 12.5 ng/ml (all Miltenyi Biotec) as well as 3% human male AB Serum (Access Cell Culture). The culture volume was expanded over time to maintain cells at a concentration of ^~1.5×10^6/ml using G-Rex 24-well and 6-well plates or G-Rex 100M according to manufacturer's instructions (Wilson-Wolf). Small molecule inhibitors AZD0156 (Selleck Chemicals) and Methotrexate (Sigma Aldrich) were resuspended in DMSO and added to the cell culture media as indicated.
On day 2, unless otherwise indicated, Dynabeads were magnetically removed and cells were counted prior to electroporation on the Maxcyte GTx. For electroporation cells were washed once in Electroporation Buffer (Maxcyte) and then resuspended at 2×10^8/ml for small scale experiments or in 2.4 ml for large-scale electroporation. […]
Cell counts and Viability were obtained using the Nexcelom Cellometer Auto 2000. Samples were mixed with AO/PI dye at a 1:1 volume ratio and then analyzed using the setting Immune Cells—Low RBC. […]

[2] = system: primary human T cells; test: Titration of MTX in primary human T cells; format: cell-based
Protocol: as §1
To enable enrichment of the desired CAR+ knock-in population we optimized CEMENT based selection by comparing three different clinically relevant enrichment markers: Dihydrofolate Reductase^L22F/F31S (DHFR-FS), truncated Epidermal Growth Factor Receptor (tEGFR), and truncated Nerve Growth Factor Receptor (tNGFR)^9,17,33. All three enrichment markers were successfully co-inserted along with the GD2-CAR resulting in total transgene sizes of ^~2.5-3 kb. CRISPR knock-in CAR-T cells were either enriched using the FDA approved drug MTX which was diluted from a 10 mM stock in media to result in a 50 nM final concentration. […]

[3] = system: primary human T cells; test: CRISPR knock-in of GD2-CAR into TRAC in activated T cells (HDR vs HITI plasmid templates), flow cytometry and cell counts; format: cell-based; conditions: for knock-in frequencies (mean frequencies): GD2-CAR into TRAC, activated T cells electroporated day 2, flow cytometry day 10, n=4 donors
Protocol: as §1
Plasmid DNA was optimized for gene therapeutic application and consisted of two components: R6K origin of replication and an anti-Levansucrase antisense RNA to allow for an antibiotic-free selection. This ^~430 bp backbone prevents transgene silencing after genomic insertion^40,43,44. Knock-In templates were synthesized at Genscript and flanking cut sites for NheI and KpnI were used to clone synthetic genes into plasmid backbones. To introduce RNP cut sites within the plasmid DNA, the genomic target of the respective RNP was included into the above mentioned synthetic gene.
(§2) On day 2, unless otherwise indicated, Dynabeads were magnetically removed and cells were counted prior to electroporation on the Maxcyte GTx. For electroporation cells were washed once in Electroporation Buffer (Maxcyte) and then resuspended at 2×10^8/ml for small scale experiments or in 2.4 ml for large-scale electroporation. Wildtype Cas9 (61 μM, IDT) and sgRNA (125 μM, IDT) were mixed vol 1:1 resulting in a molar ratio of 2:1 and incubated for 10 min. at room temperature. Hereafter indicated amounts of plasmid DNA (3 mg/ml) were added to the RNP and incubated for at least 10 min. to allow the RNP to cut the plasmid DNA. For small-scale experiments 5×10^6 T cells were resuspended in 25 μl and 1.25 μl of RNP and respective amounts of plasmid DNA were added. Cells were then transferred into OC-25×3 processing assemblies and electroporated using the Expanded T cell 4 protocol for activated T cells or the Resting T cell 14-3 protocol for electroporation of non-activated T cells, which were stimulated after electroporation with Dynabeads at a 1:1 ratio. Small scale experiments for GPC2 CAR knock-in were conducted using the OC100×2 processing assembly with a final reaction volume of 100 μl. For large scale experiments the GMP compatible CL1.1 assembly was used. Post electroporation cells were rested in electroporation buffer either in the processing assembly (OC-25×3, OC-100×2) or in G-Rex 6-well plates (CL1.1) for 30 min. before being transferred into final G-Rex vessels.
(§3) Cell counts and Viability were obtained using the Nexcelom Cellometer Auto 2000. Samples were mixed with AO/PI dye at a 1:1 volume ratio and then analyzed using the setting Immune Cells—Low RBC.
For GD2-CAR and GPC2-CAR detection, an anti-14g2a idiotype or recombinant human Glypican-2 protein (R&D systems) were fluorescently labeled with the DyLight 650 Microscale Antibody Labeling kit (Thermo Fisher). For intracellular staining CAR+ T cells were co-cultured with respective tumor cell lines at a 1:4 ratio. Prior to co-cultivation the protein transport inhibitor Monensin (BD) and the anti-CD107a antibody (Biolegend) were added to T cell samples. […]

[4] = system: TRAC; test: IN&OUT PCR and Sanger sequencing of knock-in junctions; design: species or system human; conditions: IN&OUT PCR, Sanger sequencing
Protocol: Genomic DNA was extracted using the PureLink Genomic DNA Mini Kit (Invitrogen). Primers flanking the insertion sites of HITI1c and binding outside the respective homology arm sequence of HDR2c as well as primers binding within the inserted sequences were designed using Primer3Plus (www.primer3plus.com). Phusion Hot Start Flex 2× Mastermix (NEB) was used to amplify genomic regions of interest and DNA gel electrophoresis was conducted using the E-Gel Power Snap System (Thermo Scientific). Samples were shipped to ELIM BIOPHARM for Sanger sequencing. Sequences were aligned for analysis using snapgene.

[5] = system: non-activated T cells; test: CRISPR knock-in of GD2-CAR in non-activated T cells; format: cell-based, human; conditions: HITI1c vs HDR2c, day 10
Protocol: as §2, §3
For GD2-CAR and GPC2-CAR detection, an anti-14g2a idiotype or recombinant human Glypican-2 protein (R&D systems) were fluorescently labeled with the DyLight 650 Microscale Antibody Labeling kit (Thermo Fisher). For intracellular staining CAR+ T cells were co-cultured with respective tumor cell lines at a 1:4 ratio. […]

[6] = system: primary human T cells; test: HDR inhibitor (AZD0156) modulation of GD2-CAR integration via HITI and HDR; format: cell-based
Protocol: as §1
as §2, with “Post electroporation cells were rested in electroporation buffer either in the processing assembly (OC-25×3, OC-100×2) or in G-Rex 6-well plates (CL1.1) for 30 min. before being transferred into final G-Rex vessels.” left out

CN(Cc1cnc2nc(N)nc(N)c2n1)c1ccc(C(=O)N[C@@H](CCC(=O)O)C(=O)O)cc1 [MTX, methotrexate]
effects of MTX on viability of edited vs. non-edited T cells [1]: only non-edited cells were compromised in their viability
concentration from which efficient killing occurs ([2]; n=2 donors, technical duplicates): ≥ 50 nM
concentration at which MTX exerts cytostatic effects in dividing T cells ([2]; primary human T cells post activation): 50 nM

HITI1c: Knock-In template plasmid, one cut site: cut_site-EFS-Signalpeptide-14g2a-CD8TM-4-1BB-CD3z-STOP-bGH_ployA (SEQ ID NO: 3)
knock-in frequencies (mean frequencies) [3]: 15.7%
GD2-CAR T cell yields, HITI vs HDR ([3]; HITI1c vs HDR2c, day 10, average): ~ 3 fold
GD2-CAR T cell yield, one cut site vs two cut sites ([3]; HITI1c vs HITI2c, day 10): ~ 6 fold
insertion rates, HITI1c vs HDR2c ([3]; activated T cells, day 10): comparable
Indels at both junctions of integrated plasmid construct [4]: 6 bp
CAR+ T cell yield in non-activated T cells [5]: higher
insertion rates in non-activated T cells [5]: higher
viability in non-activated T cells [5]: higher

CN(C)CCCOc1ccc(-c2ccc3ncc4c(c3c2)n(C2CCOCC2)c(=O)n4C)cn1 [AZD0156]
knock-in efficiency of HDR2c when AZD0156 was added ([6]; HDR2c template, 18 hours treatment post electroporation, vs untreated): decreased knock-in efficiency
insertion rates for HITI1c when AZD0156 was added ([6]; HITI1c template, 18 hours treatment post electroporation, vs untreated): higher insertion rates
GD2-CAR T cell yields in HITI1c samples after AZD0156 treatment ([6]; compared to untreated controls): decreased GD2-CAR T cell yields

HITI2c: Knock-In template plasmid, two cut sites: cut_site-EFS-Signalpeptide-14g2a-CD8TM-4-1BB-CD3z-STOP-bGH_ployA-cut_site (SEQ ID NO: 4)
knock-in frequencies (mean frequencies) [3]: 9.3%
